Data on 11 compounds can be found in patent publication US20050154230A1, “Urea derivatives” (Bayer HealthCare AG, priority 2001, published 2005).

In one data set the target is T1, human VR1 (Homo sapiens, UniProt Q8NER1).
T1 construct: expressed in transfected cells
In words: Capsaicin-induced Ca2+ influx in the human VR1-transfected CHO cell line (Assay 1). Format: cell-based. The following applies: human VR1-CHOluc9aeq cells, 10 nM capsaicin; compound purity about 40 to 90%; read-out: hVR1 class. In a few lines:
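CHO cells expressing human VR1 with an aequorin reporter were treated with compound or vehicle for 20 min at 25° C. Capsaicin-induced Ca^2+ influx was then measured on an FDSS-3000. Integral R was calculated and compared with controls.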

Bounds are passed on as bounds.

T1 sequence (Q8NER1 whole entry): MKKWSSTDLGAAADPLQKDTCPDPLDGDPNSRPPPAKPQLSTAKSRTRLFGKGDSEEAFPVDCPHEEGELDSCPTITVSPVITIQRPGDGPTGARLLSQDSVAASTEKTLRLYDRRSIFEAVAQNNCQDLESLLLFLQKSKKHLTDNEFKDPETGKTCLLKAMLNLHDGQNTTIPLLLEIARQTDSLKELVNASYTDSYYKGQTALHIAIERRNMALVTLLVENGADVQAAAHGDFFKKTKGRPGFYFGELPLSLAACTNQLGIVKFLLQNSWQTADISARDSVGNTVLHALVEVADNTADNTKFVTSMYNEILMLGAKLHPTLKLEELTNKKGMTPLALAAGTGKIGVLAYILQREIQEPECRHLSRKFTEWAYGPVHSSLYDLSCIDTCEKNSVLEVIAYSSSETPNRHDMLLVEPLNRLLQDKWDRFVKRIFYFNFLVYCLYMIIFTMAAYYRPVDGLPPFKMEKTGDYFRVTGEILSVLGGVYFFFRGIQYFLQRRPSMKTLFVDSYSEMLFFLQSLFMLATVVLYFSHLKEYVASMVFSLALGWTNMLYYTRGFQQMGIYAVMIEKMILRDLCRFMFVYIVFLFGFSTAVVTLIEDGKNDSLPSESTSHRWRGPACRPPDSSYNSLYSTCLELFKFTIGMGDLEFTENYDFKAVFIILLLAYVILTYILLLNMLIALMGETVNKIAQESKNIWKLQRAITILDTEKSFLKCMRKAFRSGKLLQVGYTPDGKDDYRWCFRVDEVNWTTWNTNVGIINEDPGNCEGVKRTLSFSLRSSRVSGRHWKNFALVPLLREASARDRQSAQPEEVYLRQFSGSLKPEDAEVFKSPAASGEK

As for `O=C(Nc1cccc(-c2ccccc2Cl)c1)Nc1ccc(Cl)cc1CCO` [Example 245], the melting point (commonly the temperature of the solid-liquid transition) was 191 to 193 °C. The IC50 on human VR1 was 0.1 to 0.5 µM.

`O=C(Nc1cccc(-c2ccc(Cl)cc2)c1)Nc1ccc(Cl)cc1CCO` [Example 246]: the melting point lay in the range of 209 to 211 °C. Also, at human VR1, the IC50 was in the range of 0.5 to 1 µM.

For the compound `O=C(Nc1cccc(-c2ccoc2)c1)Nc1ccccc1CCO` [Example 247], the melting point amounted to 190 °C. Besides, at human VR1, the IC50 is under 0.1 µM.

In the case of `Cc1ccc(-c2cccc(NC(=O)Nc3ccccc3CCO)c2)cc1Cl` [Example 248], the melting point was determined as 194 °C. Further, at human VR1, the IC50 is under 0.1 µM.

For the compound `O=C(Nc1cccc(-c2ccc(Cl)c(F)c2)c1)Nc1ccccc1CCO` [Example 249], the melting point stood at 180 °C. Further, the IC50 at human VR1 is under 0.1 µM.

`O=C(Nc1ccccc1CCO)Nc1cccc2c1Cc1ccccc1-2` [Example 253] came in with a melting point of 182 to 183 °C. For the same compound, the IC50 on human VR1 was under 0.1 µM.

With `O=C(Nc1ccc(Cl)c(C(F)(F)F)c1)Nc1cccc(C(F)(F)F)c1CCO` [Example 254], the melting point came out at 201 °C. For the same compound, the IC50 at human VR1 is 0.1 to 0.5 µM.

`O=C(Nc1ccc(Cl)c(C(F)(F)F)c1)Nc1cccc(Br)c1CCO` [Example 255] yielded a melting point of 209 °C. In addition, the IC50 at human VR1 was under 0.1 µM.

Take `Cc1cccc(NC(=O)Nc2ccc(Cl)c(C(F)(F)F)c2)c1CCO` [Example 256]: the melting point was 201 °C. The IC50 on human VR1 is under 0.1 µM.

`O=C(Nc1ccc(Cl)c(C(F)(F)F)c1)Nc1cccc(-c2ccccc2)c1CCO` [Example 257] returned a melting point of 173 °C. Further, on human VR1, the IC50 fell in the range of 0.1 to 0.5 µM.

In turn, `Cc1cccc(NC(=O)NCc2ccc(C(F)(F)F)cc2)c1CCO` [Example 258] came in with a melting point of 213 °C. Further, on human VR1, the IC50 is under 0.1 µM.
